The conditions of this data set: 101 kPa, Liquid.

Molecules are shown by their SMILES. Numbers after ± are expanded uncertainties.

By mass density is commonly meant mass per unit of volume. The term speed of sound denotes the propagation velocity of pressure waves in the medium. A word on the viscosity: it is the internal friction of a fluid under shear. On to `CCCCO` [butan-1-ol], for which, for the setting “293.15 K”, the mass density was 809.5 ± 0.43 kg/m3, the speed of sound is 1257 ± 2 m/s and the viscosity came out at 2.941 ± 0.068 mPa·s. Besides, under “298.15 K”, the mass density came out at 805.75 ± 0.43 kg/m3, the speed of sound is 1240 ± 2 m/s and the viscosity was 2.571 ± 0.06 mPa·s. Under “303.15 K”, the mass density turned out to be 801.8 ± 0.44 kg/m3, the speed of sound is 1224 ± 2 m/s and the viscosity is 2.255 ± 0.053 mPa·s.
With `C1CCCCC1` [cyclohexane], the mass density is given as 778.62 ± 0.48 kg/m3 (293.15 K), 773.92 ± 0.48 kg/m3 (298.15 K) and 769.19 ± 0.49 kg/m3 (303.15 K). In addition, the speed of sound (293.15 K) was 1279 ± 3 m/s, the speed of sound (298.15 K) is 1254 ± 3 m/s and the speed of sound (303.15 K) was determined as 1230 ± 3 m/s. For the same molecule, the viscosity by setting is: (293.15 K) 0.968 ± 0.024 mPa·s; (298.15 K) 0.887 ± 0.022 mPa·s; (303.15 K) 0.816 ± 0.021 mPa·s.
With `C1CCCC1` [cyclopentane], for the setting “293.15 K”, the mass density is reported as 744.52 ± 0.63 kg/m3, the speed of sound is listed as 1232 ± 2 m/s and the viscosity stood at 0.439 ± 0.013 mPa·s. In addition, where the note is “298.15 K”, the mass density is 739.55 ± 0.64 kg/m3, the speed of sound stood at 1206 ± 2 m/s and the viscosity came out at 0.416 ± 0.012 mPa·s. Where the note is “303.15 K”, the mass density worked out at 734.54 ± 0.65 kg/m3, the speed of sound turned out to be 1180 ± 2 m/s and the viscosity came out at 0.394 ± 0.012 mPa·s.
With `CCO` [ethanol], where the note is “293.15 K”, the mass density is 789.75 ± 0.46 kg/m3, the speed of sound was 1162 ± 3 m/s and the viscosity is on record as 1.187 ± 0.029 mPa·s. Where the note is “298.15 K”, the mass density was determined as 785.46 ± 0.47 kg/m3, the speed of sound amounted to 1145 ± 2 m/s and the viscosity came out at 1.082 ± 0.027 mPa·s. In addition, for the setting “303.15 K”, the mass density is 781.15 ± 0.47 kg/m3, the speed of sound is 1128 ± 2 m/s and the viscosity came out at 0.987 ± 0.025 mPa·s.
In the case of `CCCO` [propan-1-ol], the mass density worked out at 803.59 ± 0.56 kg/m3 (293.15 K), 799.58 ± 0.57 kg/m3 (298.15 K) and 795.55 ± 0.57 kg/m3 (303.15 K). Besides, the speed of sound (293.15 K) was determined as 1223 ± 2 m/s, the speed of sound (298.15 K) was found to be 1206 ± 2 m/s and the speed of sound (303.15 K) stood at 1189 ± 2 m/s. The viscosity runs as follows: (293.15 K) 2.159 ± 0.051 mPa·s; (298.15 K) 1.915 ± 0.046 mPa·s; (303.15 K) 1.713 ± 0.042 mPa·s.

Values taken from the NIST ThermoML archive (doi:10.1016/j.jct.2006.06.008).
